# Experimental data as given in patent EP3895686A1, “NATURAL COMPOSITION FOR HAIR GROWTH STIMULATION AND HAIR LOSS PREVENTION AND TREATMENT” (FRAUNHOFER-GESELLSCHAFT zur Förderung der angewandten …, priority 2020, dated 2021).
# What was measured:
# Format in all cases: cell-based
# [1] = system: Human Follicle Dermal Papilla Cells (HFDPC); experiment: Immunofluorescent staining of vimentin; conditions: 2c (higher concentration)
# [2] = system: Human Follicle Dermal Papilla Cells (HFDPC); experiment: Cell impedance test on proliferation and toxicity (xCELLigence, cell index)
# Method: The influence of various substances on the growth of HDPFC was investigated with the aid of a cell impedance device (xCELLigence® RTCA DP).
# To perform this study 5000 HFDPC (Passage: 5) per well were seeded in the 16-well wells, coated on 50 µL collagen with the addition of a maximum of 200 µl medium. The cells were grown for 96 h in pure cell culture medium. After 96 h the "pure" cell culture medium was completely removed and medium with the respective additives was added. A further change with the respective additives took place after 48 h.
# The CI (y-axis) is thus a measure of cell proliferation, cell morphology and cell vitality (only vital, adherent HFDPC can proliferate) overtime (x-axis).
# The investigation of cell proliferation (cell index CI) or the exact determination of the cell number was carried out in order to detect a possible cytotoxic effect of the substances after addition to the cells. At the beginning of the experiment, the cells were confluently seeded in order to be able to " focus " on the induction of hair growth afterwards.
# The influence of various substances on the growth of HDPFC was investigated with the aid of a cell impedance device (xCELLigence® RTCA DP). The xCELLigence® system consists of a measuring unit and software that allows to follow the cell invasion and migration in real time without the influence of additional substances for cell visualization, which could potentially have an impact on the cells. The system measures the electrical impedance via microelectrodes integrated on the bottom of the tissue culture E-plate. It enables the monitoring of changes in adhesion, spreading and proliferation of different cell types in real time, based on the measured cell-electrode impedance. […] This index is composed as follows: CI = (Rtn −Rt0)/(Fi) [formula]
# Rtn and Rt0 are the frequency-dependent electrode resistances (a component of the impedance), where Rt0 is measured at time T0 (without cells) and Rtn with cells present. Fi depends on the frequency used in the measurement. Thus CI is a quantitative measure of the number of cells in an electrode-containing well, when comparing the same cell types. Under the same physiological conditions, more cells adhered to the electrodes result in a higher Rtn value, which leads to a higher value for CI. In the absence of living cells (cell culture medium only) or in a suspension of dead cells, the cell index values are close to zero. After cellular attachment to the electrode, the measurement signal correlates linearly with the cell count throughout the experiment. This investigation was performed on a 96-well scale. To perform this study 5000 HFDPC (Passage: 5) per well were seeded in the 96-well wells, coated on 50 µL collagen with the addition of a maximum of 200 µl medium. The cells were grown for 96 h in pure cell culture medium. After 96 h the "pure" cell culture medium was completely removed and medium with the respective additives was added. A further change with the respective additives took place after 48 h. The CI is thus a measure of cell proliferation, cell morphology and cell vitality (only vital, adherent HFDPC can proliferate). (FIG 11)
# [3] = system: Human Follicle Dermal Papilla Cells (HFDPC); experiment: Cell count after trypsination; conditions: for cell number compared to untreated cells: depending on concentration and time; for influence on the cell count (conclusion): over 3 weeks
# Method: (§1) First, Human Follicle Dermal Papilla Cells (HFDPC) cells were thawed and seeded into collagen-coated cell culture flasks (T25). Then the medium was changed every 48 h. After 4 days the cells were trypsinized and seeded in T75 cell culture flask. In preparation for the final experiment, the cells were trypsinized and then counted with a cell counter. The cell concentration was then adjusted in a defined amount of medium followed by seeding of the cells in 96-well plates for the subsequent cell impedance measurements (5000 cells per well) or in 24-well plates (20000 cells per well). Subsequently, the cells were cultivated for 7 days in pure culture medium with regular medium changes after 2-3 days. After 7 days, the medium with the additives listed in Table 1 was added (designated as day 0), followed by a 3-week cultivation of the cells. The medium (and addition of fresh active substances) was changed every 2-3 days. […] The following examinations were carried out after 7, 14 and 21 days.
# This investigation was performed on a 24-well scale.
# To perform this investigation 5000 cells per well were seeded in the 96-wells with the addition of a maximum of 200 µl medium. The cells were grown for 7 days in pure cell culture medium. The medium was changed every 2-3 days, whereby 100 µl of old medium was removed and replaced by 100 µl of new medium. After 7 days the "pure" cell culture medium was completely removed and medium with the respective additives was added. The cells were then cultivated for 3 weeks with regular replacement of the medium with the respective additives. Cell counting after trypsinizing: The exact cell count of HFDPC was determined after trypsination of the cells in the respective well and uptake of the resulting cell pellets in medium. All pellets of one sample were combined in a cell culture vessel and then counted with a cell counter.
# [4] = system: Human Follicle Dermal Papilla Cells (HFDPC); experiment: VEGF-ELISA (VEGF secretion)
# Method: VEGF belongs to the signal molecules and stimulates the proliferation and migration of HFDPC. HFDPC generate more VEGF in the anagen phase. Thus, VEGF is an indication of the anagen phase of a hair. The detection of the VEGF protein was performed with the Human VEGF ELISA Kit from Invitrogen. The procedure was performed according to the protocol contained in the test kit with the cell supernatants previously frozen at -80°C. The removal of the cell culture supernatants was carried out on a 24-well scale. A higher value for the VEGF [pg/ml] (y-axis) means a higher value of detected VEGF. A higher VEGF value is an indication for a longer anagen phase. A longer anagen phase is an indication for more hair growth.
# as §1
# VEGF belongs to the signal molecules and stimulates the proliferation and migration of HFDPC. HFDPC generate more VEGF in the anagen phase. Thus VEGF is an indication of the anagen phase of a hair. […] The detection of the VEGF protein was performed with the Human VEGF ELISA Kit from invitrogen. The procedure was performed according to the protocol contained in the test kit with the cell supernatants previously frozen at -80°C. The removal of the cell culture supernatants was carried out on a 24-well scale.
# VEGF was analyzed in the cell culture supernatant to check whether the active ingredients have an influence on cell function and, if so, whether they promote the release of VEGF (see figure).
# [5] = system: Human Follicle Dermal Papilla Cells (HFDPC); experiment: Assessment of cell morphology by phase contrast microscopy; conditions: for cell adherence and proliferation (summary of morphology): diosgenin concentration-dependent
# Method: as §1
# Cell morphology was assessed through microscopic examination of the cells with an inverted microscope (phase contrast microscopy) at 10x and 20x primary magnification. The morphology of the cells provides information on the adherence behaviour of the cells,possible cell activation and cell stress. This examination was carried out on a 24-well scale.
# [6] = 1c (lower concentration), after 3 weeks
# [7] = one week after addition of the active ingredients
# [8] = 250 µg/mL in medium, first 24 hours after addition
smiles,measurement,setting,value
"C[C@@H]1CC[C@@]2(OC1)O[C@H]1C[C@H]3[C@@H]4CC=C5C[C@@H](O)CC[C@]5(C)[C@H]4CC[C@]3(C)[C@H]1[C@@H]2C [diosgenin, Diosgenin]",cell spreading and attachment to the cell culture substrate (vimentin staining),[1],able to clearly spread and attach to the cell culture substrate
same,toxic effect on the cells,[2]; measured maximum concentration of 500 µg/mL,not toxic
same,number of HDFPC over time,[3]; 1c,"remained constant after addition of Diosgenin 1c, but was increased compared to untreated cells"
same,cell number over time,"[3]; 2c, compared to untreated and Diosgenin 1c treated cells",significant increase in cell number
same,cell number compared to untreated cells,[3],positive influence on the cell number
same,influence on the cell count (conclusion),[3],positive influence on the cell count
same,VEGF release,"[4]; 1c (lower concentration), after 1 week",lower VEGF release
same,VEGF release,[4]; [6],lower VEGF release
same,cell morphology / confluence,"[5]; after 3 weeks, lower concentration",resembled untreated cells
same,cell adherence and proliferation (summary of morphology),[5]; after 3 weeks,very beneficial for cell adherence and proliferation
same,cell morphology / confluence,[5]; [7],greater confluence
same,cell morphology / confluence,[5]; second week of the experiment,"very high confluence in the well and elongated, typical growth"
"CCCCC/C=C\C/C=C\C/C=C\C/C=C\CCCC(=O)[O-].[Na+] [arachidonate, Sodium Arachidonate]",cell spreading and attachment to the cell culture substrate (vimentin staining),[1],able to clearly spread and attach to the cell culture substrate
same,cell index,[2]; 50 µg/mL in medium,increase the cell index
same,toxic effect on the cells,[2]; 50 µg/mL in medium,does not have a toxic effect
same,toxic effect on the cells,[2]; 100µg/mL in medium,has a toxic effect
same,cell count,"[3]; after 3 weeks, higher concentration, compared to untreated cells",increase in HFDPC
same,cell count,"[3]; entire duration of the experiment, independent of time and concentration",did not negatively affect the cell count
same,cell count,[3]; over 2 weeks,remained constant
same,VEGF release,[4]; [6],lower VEGF release
same,cell morphology / confluence,[5]; second week of the experiment,almost the same morphology
same,cell density,"[5]; second week, higher concentration",higher cell density
"CCCCCC[C@@H](O)C/C=C\CCCCCCCC(=O)O [ricinoleic acid, 12-hydroxy-9-cis-octadecenoic acid]",cell index,"[2]; 100µg/mL, after 24 h and 48 h addition",remained constant
same,cell index,[2]; [8],positive influence on the cell index
same,toxic effect on the cells,[2]; [8],does not appear to have a toxic effect
same,cell index,"[2]; 250 µg/mL, after 48h of repeated addition",decreases
same,cell count,"[3]; after 1 week, compared to untreated cells",the difference was visible in both treated groups compared to untreated cells
same,cell number compared to untreated cells,[3],significant increase in cell count
same,influence on the cell count (conclusion),[3],positive influence on the cell count
same,VEGF release,"[4]; 2.c (higher concentration), after 3 weeks",lower VEGF release
same,cell morphology / confluence,"[5]; after 3 weeks, both concentrations","confluent, very dense monolayer and an elongated cell shape"
same,cell adherence and proliferation (summary of morphology),[5]; after 3 weeks,very beneficial for cell adherence and proliferation
same,cell morphology / confluence,[5]; [7],greater confluence
same,cell morphology / confluence,[5]; second week of the experiment,"very high confluence in the well and elongated, typical growth"
